Experimental findings from ChEMBL document CHEMBL4507299, “Data for DCP probe PF-04554878” (2021) are described below.

SMILES strings stand for the structures.

Test [1] has as its target cAMP-dependent protein kinase catalytic subunit alpha (Homo sapiens) (UniProt P17612). The test can be described thus: PKACa Invitrogen kinase activity assay. The settings on record: Compound concentration 1.0 uM.
The target in test [2] is D(3) dopamine receptor (Homo sapiens) (UniProt P35462). To be noted: Compound concentration 10.0 uM.
Sequence of D(3) dopamine receptor (Homo sapiens) (P35462 whole entry): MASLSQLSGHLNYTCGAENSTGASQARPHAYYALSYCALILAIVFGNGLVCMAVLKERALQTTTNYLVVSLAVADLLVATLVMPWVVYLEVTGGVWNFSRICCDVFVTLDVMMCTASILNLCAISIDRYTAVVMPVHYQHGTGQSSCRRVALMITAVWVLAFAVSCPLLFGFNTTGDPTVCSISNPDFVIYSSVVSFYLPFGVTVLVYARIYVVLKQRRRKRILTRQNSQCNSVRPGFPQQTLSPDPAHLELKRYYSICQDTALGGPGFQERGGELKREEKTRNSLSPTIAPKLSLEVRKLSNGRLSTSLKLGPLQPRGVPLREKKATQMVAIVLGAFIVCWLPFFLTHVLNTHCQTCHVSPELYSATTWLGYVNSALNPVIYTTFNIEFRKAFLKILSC
The target in test [3] is Epidermal growth factor receptor (Homo sapiens) (UniProt P00533). Put plainly: EGFR Invitrogen kinase activity assay. The settings on record: Compound concentration 1.0 uM.
Test [4] deals with Ribosomal protein S6 kinase beta-1 (Homo sapiens), P23443 [UNDEFINED MUTATION]. Put plainly: S6K T389D D3E Invitrogen kinase activity assay. The settings on record: Compound concentration 1.0 uM.
Sequence of Ribosomal protein S6 kinase beta-1 (Homo sapiens), P23443 [UNDEFINED MUTATION] (P23443 whole entry, looked up, stated change not applied): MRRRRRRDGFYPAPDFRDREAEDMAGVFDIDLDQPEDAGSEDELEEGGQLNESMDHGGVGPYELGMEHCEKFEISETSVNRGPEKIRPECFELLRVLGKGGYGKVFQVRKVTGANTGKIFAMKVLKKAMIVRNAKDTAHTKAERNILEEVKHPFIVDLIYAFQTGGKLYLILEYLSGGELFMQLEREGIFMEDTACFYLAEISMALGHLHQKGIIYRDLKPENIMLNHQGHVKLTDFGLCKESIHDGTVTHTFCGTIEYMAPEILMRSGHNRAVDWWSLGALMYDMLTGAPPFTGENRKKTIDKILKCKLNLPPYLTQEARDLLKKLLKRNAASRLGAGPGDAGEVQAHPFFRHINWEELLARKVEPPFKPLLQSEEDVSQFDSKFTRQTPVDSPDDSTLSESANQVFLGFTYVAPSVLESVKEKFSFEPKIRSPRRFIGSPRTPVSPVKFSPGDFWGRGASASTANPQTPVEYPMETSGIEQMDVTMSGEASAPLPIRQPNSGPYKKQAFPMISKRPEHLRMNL
For test [5], the target named is T1, Inhibitor of nuclear factor kappa-B kinase subunit beta (Homo sapiens) (UniProt O14920).
T1 sequence (whole entry): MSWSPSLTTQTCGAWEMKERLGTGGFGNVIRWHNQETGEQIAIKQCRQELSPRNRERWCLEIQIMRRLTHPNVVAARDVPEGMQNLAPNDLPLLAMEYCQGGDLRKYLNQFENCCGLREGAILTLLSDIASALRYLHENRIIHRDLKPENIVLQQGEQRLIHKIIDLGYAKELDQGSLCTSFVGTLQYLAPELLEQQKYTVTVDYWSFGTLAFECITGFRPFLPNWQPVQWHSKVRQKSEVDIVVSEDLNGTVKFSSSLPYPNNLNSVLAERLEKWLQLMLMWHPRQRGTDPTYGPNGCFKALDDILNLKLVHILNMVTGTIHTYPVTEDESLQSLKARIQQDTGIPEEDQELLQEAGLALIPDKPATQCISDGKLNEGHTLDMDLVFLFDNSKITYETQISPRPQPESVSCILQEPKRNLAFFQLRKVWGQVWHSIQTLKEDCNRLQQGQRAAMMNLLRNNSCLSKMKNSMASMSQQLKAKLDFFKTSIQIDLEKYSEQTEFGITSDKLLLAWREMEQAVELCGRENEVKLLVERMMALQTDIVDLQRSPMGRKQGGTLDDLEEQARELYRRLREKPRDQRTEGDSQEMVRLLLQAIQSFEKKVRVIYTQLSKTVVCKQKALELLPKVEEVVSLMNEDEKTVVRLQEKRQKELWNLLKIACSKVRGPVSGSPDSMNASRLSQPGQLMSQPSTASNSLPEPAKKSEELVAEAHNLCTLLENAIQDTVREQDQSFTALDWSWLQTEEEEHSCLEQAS
The test can be described thus: IKKβ Invitrogen kinase activity assay. The settings on record: Compound concentration 1.0 uM.

Test [6] deals with Serine/threonine-protein kinase 26 (Homo sapiens) (UniProt Q9P289). The test can be described thus: MASK Invitrogen kinase activity assay. The settings on record: Compound concentration 1.0 uM.
Sequence of Serine/threonine-protein kinase 26 (Homo sapiens) (Q9P289 2-416 limits assumed): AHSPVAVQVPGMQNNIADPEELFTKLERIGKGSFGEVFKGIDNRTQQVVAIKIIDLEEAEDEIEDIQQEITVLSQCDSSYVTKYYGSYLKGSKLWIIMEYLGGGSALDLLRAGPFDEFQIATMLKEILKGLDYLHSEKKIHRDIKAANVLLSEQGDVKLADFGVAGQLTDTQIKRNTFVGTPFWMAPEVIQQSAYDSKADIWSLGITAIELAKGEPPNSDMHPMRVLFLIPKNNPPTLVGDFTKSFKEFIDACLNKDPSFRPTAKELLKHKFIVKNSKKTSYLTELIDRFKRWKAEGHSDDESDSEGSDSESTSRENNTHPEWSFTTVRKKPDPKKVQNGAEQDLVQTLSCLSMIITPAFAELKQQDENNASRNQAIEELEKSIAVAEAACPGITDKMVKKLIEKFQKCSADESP
The target in test [7] is Adenosine receptor A3 (Homo sapiens, UniProt P0DMS8). Put plainly: Cerep profiling assay (ADORA3). Details: compound concentration 10 uM.
Test [8] has as its target T2, Serine/threonine-protein kinase 3 (Homo sapiens) (UniProt Q13188).
T2 sequence (whole entry): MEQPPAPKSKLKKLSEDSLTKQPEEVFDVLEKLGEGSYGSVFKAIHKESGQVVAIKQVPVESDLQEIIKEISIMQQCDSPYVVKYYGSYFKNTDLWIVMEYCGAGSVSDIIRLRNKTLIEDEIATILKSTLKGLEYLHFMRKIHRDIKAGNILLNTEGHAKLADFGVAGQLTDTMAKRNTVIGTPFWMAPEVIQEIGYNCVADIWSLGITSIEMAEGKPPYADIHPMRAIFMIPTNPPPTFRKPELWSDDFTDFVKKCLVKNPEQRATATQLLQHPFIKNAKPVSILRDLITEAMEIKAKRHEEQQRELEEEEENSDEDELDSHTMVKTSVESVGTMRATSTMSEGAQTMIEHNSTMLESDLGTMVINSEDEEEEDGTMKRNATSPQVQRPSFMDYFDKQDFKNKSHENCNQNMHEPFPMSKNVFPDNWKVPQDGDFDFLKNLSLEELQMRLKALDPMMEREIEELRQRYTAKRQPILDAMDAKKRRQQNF
Put plainly: MST2 Invitrogen kinase activity assay. The settings on record: Compound concentration 1.0 uM.

In test [9] the target is Myosin light chain kinase 2, skeletal/cardiac muscle (Homo sapiens) (UniProt Q9H1R3). The test can be described thus: MYLK2 Invitrogen kinase activity assay. The settings on record: Compound concentration 1.0 uM.
Sequence of Myosin light chain kinase 2, skeletal/cardiac muscle (Homo sapiens) (Q9H1R3 whole entry): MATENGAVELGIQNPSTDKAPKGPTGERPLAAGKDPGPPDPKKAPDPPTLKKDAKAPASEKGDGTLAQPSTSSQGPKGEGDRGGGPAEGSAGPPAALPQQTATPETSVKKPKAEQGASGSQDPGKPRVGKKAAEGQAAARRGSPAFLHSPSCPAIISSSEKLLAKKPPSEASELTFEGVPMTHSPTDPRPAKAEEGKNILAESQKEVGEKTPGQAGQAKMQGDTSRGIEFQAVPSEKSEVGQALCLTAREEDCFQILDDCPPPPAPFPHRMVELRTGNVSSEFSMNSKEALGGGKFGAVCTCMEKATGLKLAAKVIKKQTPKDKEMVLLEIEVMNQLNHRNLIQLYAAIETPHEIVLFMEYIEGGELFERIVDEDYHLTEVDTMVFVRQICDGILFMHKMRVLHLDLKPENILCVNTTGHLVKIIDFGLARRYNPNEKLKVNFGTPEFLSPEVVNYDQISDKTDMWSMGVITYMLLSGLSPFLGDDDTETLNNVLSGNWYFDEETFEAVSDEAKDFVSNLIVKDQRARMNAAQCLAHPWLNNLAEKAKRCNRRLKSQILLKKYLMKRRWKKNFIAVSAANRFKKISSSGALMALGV
Test [10] deals with Dual specificity protein kinase CLK1 (Homo sapiens, UniProt P49759). Put plainly: CLK1 Invitrogen kinase activity assay.
Test [11] deals with Kappa-type opioid receptor (Homo sapiens) (UniProt P41145). The settings on record: Compound concentration 10.0 uM.
Sequence of Kappa-type opioid receptor (Homo sapiens) (P41145 whole entry): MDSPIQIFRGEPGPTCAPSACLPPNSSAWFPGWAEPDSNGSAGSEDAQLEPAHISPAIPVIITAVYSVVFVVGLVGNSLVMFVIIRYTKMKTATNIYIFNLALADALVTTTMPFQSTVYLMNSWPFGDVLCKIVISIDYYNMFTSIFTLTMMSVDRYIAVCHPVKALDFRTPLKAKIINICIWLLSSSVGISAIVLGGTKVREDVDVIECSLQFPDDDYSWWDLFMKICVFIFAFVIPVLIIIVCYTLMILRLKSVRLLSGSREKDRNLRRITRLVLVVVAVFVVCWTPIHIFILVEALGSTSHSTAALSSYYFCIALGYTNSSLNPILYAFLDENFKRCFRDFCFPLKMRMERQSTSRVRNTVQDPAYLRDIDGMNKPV
The target of test [12] is Mitogen-activated protein kinase kinase kinase kinase 4 (Homo sapiens) (UniProt O95819). The test can be described thus: MAP4K4 Invitrogen kinase activity assay. To be noted: Compound concentration 1.0 uM.
Sequence of Mitogen-activated protein kinase kinase kinase kinase 4 (Homo sapiens) (O95819 2-1239 limits assumed): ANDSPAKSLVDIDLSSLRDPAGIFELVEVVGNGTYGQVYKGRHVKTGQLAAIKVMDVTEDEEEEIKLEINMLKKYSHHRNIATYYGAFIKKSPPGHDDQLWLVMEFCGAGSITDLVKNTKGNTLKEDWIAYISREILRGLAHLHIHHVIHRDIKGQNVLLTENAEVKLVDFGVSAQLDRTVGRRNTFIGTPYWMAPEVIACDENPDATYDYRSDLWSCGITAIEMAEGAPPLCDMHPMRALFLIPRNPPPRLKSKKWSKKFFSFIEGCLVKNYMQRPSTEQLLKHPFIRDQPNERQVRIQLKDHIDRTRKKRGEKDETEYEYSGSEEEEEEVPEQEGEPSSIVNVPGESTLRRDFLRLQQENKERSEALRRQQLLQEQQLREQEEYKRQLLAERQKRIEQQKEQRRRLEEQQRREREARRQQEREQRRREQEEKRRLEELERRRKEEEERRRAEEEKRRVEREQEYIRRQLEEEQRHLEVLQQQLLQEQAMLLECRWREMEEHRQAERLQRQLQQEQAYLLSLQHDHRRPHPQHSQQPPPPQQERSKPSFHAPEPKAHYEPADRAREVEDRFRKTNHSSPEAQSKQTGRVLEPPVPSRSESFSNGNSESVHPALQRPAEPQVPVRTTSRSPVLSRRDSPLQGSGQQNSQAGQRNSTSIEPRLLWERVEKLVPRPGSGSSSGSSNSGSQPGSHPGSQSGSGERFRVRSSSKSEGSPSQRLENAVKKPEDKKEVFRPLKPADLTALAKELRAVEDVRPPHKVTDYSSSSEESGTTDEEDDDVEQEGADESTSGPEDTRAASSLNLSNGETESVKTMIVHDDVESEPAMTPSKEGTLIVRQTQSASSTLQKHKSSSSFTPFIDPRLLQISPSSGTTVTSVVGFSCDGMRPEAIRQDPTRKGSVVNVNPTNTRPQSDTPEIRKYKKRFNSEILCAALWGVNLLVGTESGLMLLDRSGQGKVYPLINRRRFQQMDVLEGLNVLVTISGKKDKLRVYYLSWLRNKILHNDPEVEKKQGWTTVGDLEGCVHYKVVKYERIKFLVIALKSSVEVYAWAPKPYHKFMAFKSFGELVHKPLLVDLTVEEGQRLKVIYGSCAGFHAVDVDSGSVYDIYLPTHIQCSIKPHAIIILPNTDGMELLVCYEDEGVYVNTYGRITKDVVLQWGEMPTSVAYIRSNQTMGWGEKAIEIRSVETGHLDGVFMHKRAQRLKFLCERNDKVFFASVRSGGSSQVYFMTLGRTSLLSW
For test [13], the target named is Insulin receptor (Homo sapiens) (UniProt P06213). The test can be described thus: INSR Invitrogen kinase activity assay. The settings on record: Compound concentration 1.0 uM.
For test [14], the target named is Mitogen-activated protein kinase 14 (Homo sapiens) (UniProt Q16539). The test can be described thus: SAPK2A/p38 Invitrogen kinase activity assay. The settings on record: Compound concentration 1.0 uM.
Test [15] addresses Proto-oncogene tyrosine-protein kinase Src (Homo sapiens, UniProt P12931). Put plainly: SRC Invitrogen kinase activity assay.
Test [16] has as its target Casein kinase II subunit alpha (Homo sapiens) (UniProt P68400). The test can be described thus: CK2 Invitrogen kinase activity assay. The settings on record: Compound concentration 1.0 uM.
Test [17] has as its target Beta-2 adrenergic receptor (Homo sapiens) (UniProt P07550). The settings on record: Compound concentration 10.0 uM.
For test [18], the target named is Mu-type opioid receptor (Homo sapiens) (UniProt P35372). To be noted: Compound concentration 10.0 uM.
Sequence of Mu-type opioid receptor (Homo sapiens) (P35372 whole entry): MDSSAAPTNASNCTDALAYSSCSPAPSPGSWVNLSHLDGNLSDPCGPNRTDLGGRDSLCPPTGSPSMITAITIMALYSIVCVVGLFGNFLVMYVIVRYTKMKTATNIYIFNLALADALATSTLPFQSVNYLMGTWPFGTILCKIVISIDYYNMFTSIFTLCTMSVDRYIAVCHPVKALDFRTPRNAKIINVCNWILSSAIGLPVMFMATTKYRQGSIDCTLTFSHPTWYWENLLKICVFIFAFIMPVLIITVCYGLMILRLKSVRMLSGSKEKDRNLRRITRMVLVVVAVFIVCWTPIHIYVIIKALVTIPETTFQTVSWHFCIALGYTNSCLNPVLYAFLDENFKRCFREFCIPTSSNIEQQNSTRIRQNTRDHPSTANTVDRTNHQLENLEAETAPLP
Test [19] addresses GABA-A receptor; anion channel (Rattus norvegicus) (UniProt O09028+P15431+P18506+P18508+P19969+P20236+P23574+P23576+P28471+P28473+P30191+P62813+P63079+P63138+Q91ZM7+Q9ES14). To be noted: Compound concentration 10.0 uM.
The target of test [20] is Muscarinic acetylcholine receptor M4 (Homo sapiens) (UniProt P08173). The settings on record: Compound concentration 10.0 uM.

Sequence of Proto-oncogene tyrosine-protein kinase Src (P12931 2-536 limits assumed): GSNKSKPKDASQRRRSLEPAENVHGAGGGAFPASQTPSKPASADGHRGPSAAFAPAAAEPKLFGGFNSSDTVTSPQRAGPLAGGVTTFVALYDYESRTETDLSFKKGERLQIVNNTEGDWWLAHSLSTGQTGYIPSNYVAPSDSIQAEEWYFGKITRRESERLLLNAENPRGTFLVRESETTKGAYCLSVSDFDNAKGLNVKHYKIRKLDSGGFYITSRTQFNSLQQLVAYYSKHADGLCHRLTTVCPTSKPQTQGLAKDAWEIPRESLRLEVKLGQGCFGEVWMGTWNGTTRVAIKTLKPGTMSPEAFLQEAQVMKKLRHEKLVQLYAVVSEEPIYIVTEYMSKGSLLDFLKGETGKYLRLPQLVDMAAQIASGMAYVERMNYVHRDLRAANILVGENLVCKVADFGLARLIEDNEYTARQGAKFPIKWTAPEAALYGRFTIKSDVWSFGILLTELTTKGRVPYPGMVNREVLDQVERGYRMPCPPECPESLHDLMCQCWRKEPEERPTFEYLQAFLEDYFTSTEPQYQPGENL
Sequence of Beta-2 adrenergic receptor (Homo sapiens) (P07550 whole entry, looked up): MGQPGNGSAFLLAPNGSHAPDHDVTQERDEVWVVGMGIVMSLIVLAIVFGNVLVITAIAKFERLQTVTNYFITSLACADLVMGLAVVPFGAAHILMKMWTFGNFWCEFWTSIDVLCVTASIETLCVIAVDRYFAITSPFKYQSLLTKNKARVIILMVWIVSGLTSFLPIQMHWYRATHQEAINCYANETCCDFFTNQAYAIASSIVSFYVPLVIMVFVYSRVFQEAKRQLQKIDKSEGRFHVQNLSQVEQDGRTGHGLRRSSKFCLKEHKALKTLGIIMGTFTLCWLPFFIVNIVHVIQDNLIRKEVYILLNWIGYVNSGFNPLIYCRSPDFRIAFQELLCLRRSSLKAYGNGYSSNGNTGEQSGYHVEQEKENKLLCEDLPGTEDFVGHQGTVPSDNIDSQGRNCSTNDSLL

For orientation: inhibition means the percentage by which the read-out fell short of the control. The Ki is a dissociation constant, usually derived from enzyme kinetics or from competition with a known ligand. A high value points to lower affinity. In general, IC50 refers to the concentration at which inhibition is half-maximal. The low end stands for greater potency in that assay, the high end for weaker potency in that assay. As for `CNC(=O)c1ccc(Nc2ncc(C(F)(F)F)c(NCc3nccnc3N(C)S(C)(=O)=O)n2)cc1` [DEFACTINIB], the inhibition in [1] is 29%; in test [2] it was 11.3%; in test [3] it was 13%; in test [4], 18%; in test [5], 4%; in [6], 46%. Besides, the inhibition is 60% in test [8]; 8% in test [9]; 99% in test [10] (Compound concentration 1.0 uM); 10.8% in [11]; 28% in test [12]; 50% in test [13]. Further, the inhibition in test [14] was 1%; in test [15] (Compound concentration 1.0 uM), 58%; in [16] it was 43%. This compound also had an inhibition constant Ki in [7] of 0.027 µM. Also, the IC50 is 0.25 µM in test [10] and over 1 µM in [15].

As for `CN(c1ccnc(CNc2nc(Nc3ccc4c(c3)CC(=O)N4)ncc2C(F)(F)F)n1)S(C)(=O)=O` [PF-00911705], the inhibition in test [17] is 15.3%; in test [18], 0.77%; in [19], 10.3%; in test [20], 8.94%.
